Reference: patent publication US10054581B1, “Inhibitors of notch signaling pathway and use thereof in treatment of cancers” (Ecole Polytechnique Federale de Lausanne (EPFL), priority 2011, dated 2018)

Test system: RPMI8402
Assay: Annexin V apoptosis, RPMI8402
Assay type: cell-based, human
Details: 10 μM, 7 days
Procedure: FIGS. 6A-6D show 6-(4-Tert-Butylphenoxy)Pyridin-3-Amine (I3) induces G0/G1 cell cycle arrest and apoptosis in human T cell acute lymphoblastic leukemia cell lines and human breast cancer cell line HCC1187. […] Percentage of Annexin V positive (apoptotic) cell population was measured using flow cytometry.
To quantitate the percentage of apoptotic cells, AnnexinV and 7AAD staining was performed. Thymic cells were suspended in 300 μl of 1× AnnexinV binding buffer (BD Biosciences, San Diego, USA) and incubated with 10 μl of AnnexinV-Cy5 antibody and 10 μl of 7AAD (BD Biosciences, San Diego, USA). Samples were incubated for 15 minutes at room temperature. FACS was performed with in one hour of antibody staining.
This 6-(4-Tert-Butylphenoxy)Pyridin-3-Amine (I3) mediated proliferative arrest could be due to induction of apoptosis or cell cycle arrest during different phases of cell cycle. […] Therefore to further elucidate the mechanisms responsible for 6-(4-Tert-Butylphenoxy)Pyridin-3-Amine (I3) mediated proliferative arrest cell cycle and apoptosis analyses were carried out. […] To investigate cell death, Annexin V staining was performed and proportion of apoptotic (AnnexinV positive) cell population was determined by flow cytometry analyses after 7 days of treatment.

Question: How did the “apoptosis (Annexin V positive cells)” value turn out when CC(C)(C)c1ccc(Oc2ccc(N)cn2)cc1 [I3, 6-(4-Tert-Butylphenoxy)Pyridin-3-Amine] was run?
Answer: induces significant apoptosis
